Read-outs that look alike come from different tables or passages of the source.

For one experiment, the target named is T1, VIM-2 (Escherichia coli, UniProt Q5U7L7).
T1 construct: made in house; host or cells: Escherichia coli
Nature of the experiment: biochemical. Type of experiment: biochemical. On the procedure:
Except where noted, recombinant forms of NDM-1, VIM-2, SPM-1, IMP-1, and BcII MBLs were produced in Escherichia coli and assays were carried out as described previously10. The IC50 values of all the compounds for VIM-2 were determined using […]
concentrations (0 μM, 1 μM, and 100 μM, see Fig. S8). The selectivity profiles of […]
as described above. The inhibitory activities of these compounds against CphA (B2 […]
MBL; IMP, Imipenemase; NDM, New Delhi MBL; TEM-1: Temomeira-type 1 […]
b The enzyme concentrations of the purified proteins were determined by measuring Abs@280nm using a NanoDrop (ThermoFisher) spectrometer and calculated molar extinction coefficient for each sample; concentrations of diluted solutions used in the assay were calculated from the original concentration. […]
negative controls. These were tested in same assay conditions but at 2mM instead of 100uM compound concentration. […]

The next experiment addresses VIM-1 (Pseudomonas aeruginosa, UniProt A0A0F7KYQ8). Nature of the experiment: biochemical. The conditions noted are these: n ≥ 3.
[1] abbreviates: FC-5 based assay, n ≥ 3, read-out: IC50 (VIM-2).
The mark [2] stands for this setting: FC-5 based assay, n ≥ 3, read-out: pIC50 (VIM-2) (converted).

As for `NC(=O)N/N=C/c1cccc(C(=O)O)c1O` [Compound 3], the IC50 on VIM-2 (setting [1]) was greater than 1600 µM.

Take `Cc1cc(N/N=C/c2ccc(O)c(C(=O)O)c2)nc(-c2ccccc2O)n1` [Compound 20]: the “differences between the inhibitory activity with or without excess Zn(II)” value at VIM-2 (0 μM, 1 μM and 100 μM Zn(II)) is “no obvious differences”. Also, the IC50 at VIM-2 (setting [1]) is less than 400 µM.

In the case of `O=C(O)c1cccc2c1C(=O)N(Cc1ccncc1)C2` [Compound 22], the IC50 on VIM-1 and at VIM-2 (setting [1]) was greater than 400 µM throughout.

As for `CN(C)Cc1ccc(N2Cc3cccc(C(=O)O)c3C2=O)cc1` [Compound 34], the IC50 against VIM-1 was greater than 400 µM; on VIM-2 (setting [1]), 60.3 µM.

Turning to `Cc1c/c(=N\c2ccccc2C(=O)O)n2ncnc2[nH]1` [Compound 8], the IC50 on VIM-2 (setting [1]) was greater than 1600 µM.

`COCCCN1Cc2cccc(C(=O)O)c2C1=O` [Compound 40]: the IC50 on VIM-1 and at VIM-2 (setting [1]) was greater than 400 µM in each case.

Take `CC(c1ccncc1)N1Cc2cccc(C(=O)O)c2C1=O` (stereo not shown) [Compound 29]: the IC50 is greater than 400 µM against VIM-1 and 229 µM on VIM-2 (setting [1]).

Take `O=C(O)CCC(NS(=O)(=O)c1ccccc1)C(=O)O` (stereo not shown) [Compound 11]: the IC50 against VIM-2 (IC50 (VIM-2)) is 1110 µM; at VIM-2 (pIC50 (VIM-2)), 1100 µM.

For `O=C(O)c1cccc2c1C(=O)N(c1ccccc1)C2` [Compound 30], the IC50 against VIM-1 is greater than 400 µM; at VIM-2 (setting [1]), 17.8 µM.

Regarding `C=CCC1c2cccc(C(=O)O)c2C(=O)N1c1ccc(F)cc1` (stereo not shown) [Compound 41], the IC50 on VIM-1 was greater than 400 µM; at VIM-2 (setting [1]) it was 24.6 µM.

As for `Cc1ccc(-c2cn3nnc(C(=O)O)c3c(=O)[nH]2)cc1` [Compound 9], the IC50 on VIM-2 (setting [1]) was 439 µM.

On to `COc1ccccc1N1Cc2cccc(C(=O)O)c2C1=O` [Compound 31], for which the IC50 against VIM-1 was greater than 400 µM; at VIM-2 (setting [1]), 133 µM.

Turning to `O=C(O)c1cccc2c1C(=O)N(c1ccccc1Cl)C2` [Compound 33], the results for the IC50 against VIM-1 and at VIM-2 (setting [1]) were greater than 400 µM and 74 µM, respectively.

For the molecule `O=C(O)C1CC(c2ccccc2F)=NO1` (stereo not shown) [Compound 2], the IC50 at VIM-2 (setting [1]) is 993 µM.

For the molecule `O=C(O)c1cccc2c1C(=O)N(c1ccc(O)c(F)c1)C2` [Compound 35], the values for the IC50 against VIM-1 and at VIM-2 (setting [1]) were greater than 400 µM and 7.7 µM, respectively.

For the molecule `O=C(O)C(Cc1ccc(O)cc1)NC1CCS(=O)(=O)C1` (stereo not shown) [Compound 14], the IC50 is 669 µM at VIM-2 (setting [1]) and 661 µM on VIM-2 (setting [2]).

`O=C(O)c1cccc2c1C(=O)N(CC1CCCO1)C2` (stereo not shown) [Compound 38]: the IC50 at VIM-1 and on VIM-2 (setting [1]) was greater than 400 µM in each case.

Take `CN(C)c1ccc(CN2Cc3cccc(C(=O)O)c3C2=O)cc1` [Compound 27]: the IC50 against VIM-1 was greater than 400 µM; on VIM-2 (setting [1]), 176 µM; at VIM-2 (setting [2]), 174 µM.

`Cc1oc2c(c1C(=O)O)C(=O)CC(c1ccccc1)C2` (stereo not shown) [Compound 10]: at VIM-2 (setting [1]), the IC50 is greater than 1600 µM.

For the molecule `O=C(O)c1cccc2c1C(=O)N(Cc1ccc(F)cc1)C2` [Compound 23], the IC50 against VIM-1 was greater than 400 µM; at VIM-2 (setting [1]), 250 µM.

Take `O=C(O)/C=C/C(=O)c1ccc(O)cc1` [Compound 1]: the IC50 against VIM-2 (IC50 (VIM-2)) was 637 µM.

Consider `O=C(O)c1cccc2c1C(=O)N(C1CCCC1)C2` [Compound 37], for which the IC50 against VIM-1 is greater than 400 µM; on VIM-2 (setting [1]), 68.1 µM.

`C=CCC1c2cccc(C(=O)OC)c2C(=O)N1c1ccccc1` (stereo not shown) [Compound 43]: the IC50 at VIM-1 and at VIM-2 (setting [1]) was greater than 400 µM in each case. For the same molecule, at VIM-2, the “inhibitory activity against VIM-2 (in words)” value is given as “much lower inhibitory potency”.

As to `COc1cc(CN2Cc3cccc(C(=O)O)c3C2=O)cc(OC)c1OC` [Compound 26], the IC50 against VIM-1 and on VIM-2 (setting [1]) was greater than 400 µM in each case.

Take `O=C(O)c1cccc2c1C(=O)N(Cc1cccnc1)C2` [Compound 21]: the IC50 at VIM-1 was greater than 400 µM; on VIM-2 (setting [1]), 349 µM.

For `CNCc1ccc(-c2cccc(C(=O)O)c2)o1` [Compound 5], the IC50 on VIM-2 (setting [1]) is greater than 1600 µM.

Consider `O=C(O)CC1CC(c2ccc(F)cc2)=NO1` (stereo not shown) [Compound 4], for which the IC50 on VIM-2 (setting [1]) is 557 µM.

As to `CC(=O)Nc1ccc(S(=O)(=O)N2CCCC2C(=O)O)cc1` (stereo not shown) [Compound 15], the IC50 on VIM-2 (setting [1]) is greater than 1600 µM.

These data come from PMC5369532, “NMR-filtered virtual screening leads to non-metal chelating metallo-β-lactamase inhibitors” (Chemical Science, 2016).
